{"source": "the supplement of paper PMC10331698", "key": {"[1]": {"compound": "C=CC(=O)OCC(F)(F)C(F)(F)C(F)(F)COC(=O)C=C [1H,1H,5H,5H-Perfluoro-1,5-pentanediol diacrylate]", "experiment": "LOEC (log10 uM (lowest observed effect concentration))", "protocol": "(§1)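 BioMAP Diversity Plus panel in human primary cell co-cultures, 4 concentrations in duplicate blinded samples. Responses are log10 fold change versus DMSO control, processed with tcpl v2.1.0. A hit is called when responses at any concentration exceed the cutoff (the larger of 3*bmad or log10(1.2)); the lowest observed effect concentration (modl_ga, log10 uM) is reported for hits.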"}, "[2]": {"compound": "O=C(O)C(F)(F)C(F)(F)C(F)(F)C(F)(F)C(F)(F)C(F)(F)C(F)(F)C(F)(F)C(F)(F)C(F)F [11-H-Perfluoroundecanoic acid]", "experiment": "LOEC (log10 uM (lowest observed effect concentration))", "protocol": "as §1"}}, "note": "± gives the standard deviation of the averaged measurements.", "data": [{"test system": "BT sIgG down", "values": [{"measurement": "LOEC (log10 uM)", "setting": "[1]", "result": 0.845}]}, {"test system": "CASM3C PAI1 down", "values": [{"measurement": "LOEC (log10 uM)", "setting": "[1]", "result": 1.78}]}, {"test system": "BT xIL17A down", "values": [{"measurement": "LOEC (log10 uM)", "setting": "[1]", "result": 0.845}]}, {"test system": "KF3CT TIMP2 down", "values": [{"measurement": "LOEC (log10 uM)", "setting": "[1]", "result": 1.78}]}, {"test system": "LPS MCSF down", "values": [{"measurement": "LOEC (log10 uM)", "setting": "[1]", "result": 1.3}]}, {"test system": "3C VCAM1 down", "values": [{"measurement": "LOEC (log10 uM)", "setting": "[1]", "result": 0.845}]}, {"test system": "3C MCP1 down", "values": [{"measurement": "LOEC (log10 uM)", "setting": "[1]", "result": 1.3}, {"measurement": "LOEC (log10 uM)", "setting": "[2]", "result": 1.78}]}, {"test system": "LPS TNFa down", "values": [{"measurement": "LOEC (log10 uM)", "setting": "[1]", "result": 1.3}]}, {"test system": "BE3C Keratin818 down", "values": [{"measurement": "LOEC (log10 uM)", "setting": "[2]", "result": "1.54 ± 0.34"}]}, {"test system": "CASM3C VCAM1 down", "values": [{"measurement": "LOEC (log10 uM)", "setting": "[1]", "result": 0.845}]}, {"test system": "BT xIL2 down", "values": [{"measurement": "LOEC (log10 uM)", "setting": "[1]", "result": 0.845}]}, {"test system": "KF3CT SRB down", "values": [{"measurement": "LOEC (log10 uM)", "setting": "[1]", "result": 1.3}, {"measurement": "LOEC (log10 uM)", "setting": "[2]", "result": 1.78}]}, {"test system": "SAg Proliferation down", "values": [{"measurement": "LOEC (log10 uM)", "setting": "[1]", "result": 0.301}, {"measurement": "LOEC (log10 uM)", "setting": "[2]", "result": 1.78}]}, {"test system": "3C TissueFactor down", "values": [{"measurement": "LOEC (log10 uM)", "setting": "[1]", "result": 0.845}]}, {"test system": "LPS TissueFactor down", "values": [{"measurement": "LOEC (log10 uM)", "setting": "[1]", "result": "1.07 ± 0.32"}]}, {"test system": "3C IL8 down", "values": [{"measurement": "LOEC (log10 uM)", "setting": "[1]", "result": 1.3}]}, {"test system": "hDFCGF TIMP1 down", "values": [{"measurement": "LOEC (log10 uM)", "setting": "[1]", "result": "0.573 ± 0.39"}]}, {"test system": "LPS MCP1 down", "values": [{"measurement": "LOEC (log10 uM)", "setting": "[1]", "result": 1.3}, {"measurement": "LOEC (log10 uM)", "setting": "[2]", "result": 1.78}]}, {"test system": "BT PBMCCytotoxicity down", "values": [{"measurement": "LOEC (log10 uM)", "setting": "[1]", "result": "0.573 ± 0.39"}]}, {"test system": "IMphg MIP1a down", "values": [{"measurement": "LOEC (log10 uM)", "setting": "[1]", "result": 1.78}]}, {"test system": "BT xIL6 down", "values": [{"measurement": "LOEC (log10 uM)", "setting": "[1]", "result": "0.573 ± 0.39"}]}, {"test system": "SAg MIG down", "values": [{"measurement": "LOEC (log10 uM)", "setting": "[1]", "result": 1.3}]}, {"test system": "hDFCGF MCSF down", "values": [{"measurement": "LOEC (log10 uM)", "setting": "[1]", "result": 0.301}, {"measurement": "LOEC (log10 uM)", "setting": "[2]", "result": "1.54 ± 0.34"}]}, {"test system": "LPS Thrombomodulin up", "values": [{"measurement": "LOEC (log10 uM)", "setting": "[1]", "result": 1.3}, {"measurement": "LOEC (log10 uM)", "setting": "[2]", "result": "1.31 ± 0.66"}]}, {"test system": "CASM3C MIG down", "values": [{"measurement": "LOEC (log10 uM)", "setting": "[1]", "result": 0.845}]}, {"test system": "hDFCGF MMP1 down", "values": [{"measurement": "LOEC (log10 uM)", "setting": "[1]", "result": 0.845}]}, {"test system": "CASM3C MCSF down", "values": [{"measurement": "LOEC (log10 uM)", "setting": "[1]", "result": 1.3}]}, {"test system": "IMphg IL8 down", "values": [{"measurement": "LOEC (log10 uM)", "setting": "[1]", "result": 1.78}]}, {"test system": "KF3CT ICAM1 down", "values": [{"measurement": "LOEC (log10 uM)", "setting": "[1]", "result": "1.07 ± 0.32"}]}, {"test system": "CASM3C IL6 down", "values": [{"measurement": "LOEC (log10 uM)", "setting": "[1]", "result": 1.3}]}, {"test system": "LPS IL8 down", "values": [{"measurement": "LOEC (log10 uM)", "setting": "[1]", "result": 1.3}]}, {"test system": "hDFCGF CollagenIII down", "values": [{"measurement": "LOEC (log10 uM)", "setting": "[1]", "result": "0.573 ± 0.39"}, {"measurement": "LOEC (log10 uM)", "setting": "[2]", "result": 0.845}]}, {"test system": "CASM3C SAA down", "values": [{"measurement": "LOEC (log10 uM)", "setting": "[1]", "result": 1.78}]}, {"test system": "4H VCAM1 down", "values": [{"measurement": "LOEC (log10 uM)", "setting": "[1]", "result": 1.3}, {"measurement": "LOEC (log10 uM)", "setting": "[2]", "result": 1.78}]}, {"test system": "hDFCGF PAI1 down", "values": [{"measurement": "LOEC (log10 uM)", "setting": "[1]", "result": 0.845}, {"measurement": "LOEC (log10 uM)", "setting": "[2]", "result": 1.78}]}, {"test system": "MyoF IL8 down", "values": [{"measurement": "LOEC (log10 uM)", "setting": "[1]", "result": 1.3}]}, {"test system": "MyoF bFGF down", "values": [{"measurement": "LOEC (log10 uM)", "setting": "[1]", "result": 1.3}]}, {"test system": "4H MCP1 down", "values": [{"measurement": "LOEC (log10 uM)", "setting": "[1]", "result": 1.3}]}, {"test system": "hDFCGF SRB down", "values": [{"measurement": "LOEC (log10 uM)", "setting": "[1]", "result": "0.573 ± 0.39"}]}, {"test system": "3C MIG down", "values": [{"measurement": "LOEC (log10 uM)", "setting": "[1]", "result": 1.3}]}, {"test system": "SAg PBMCCytotoxicity down", "values": [{"measurement": "LOEC (log10 uM)", "setting": "[1]", "result": 0.845}]}, {"test system": "CASM3C Thrombomodulin up", "values": [{"measurement": "LOEC (log10 uM)", "setting": "[1]", "result": 1.3}]}, {"test system": "CASM3C SRB down", "values": [{"measurement": "LOEC (log10 uM)", "setting": "[1]", "result": "1.54 ± 0.34"}]}, {"test system": "hDFCGF ICAM1 down", "values": [{"measurement": "LOEC (log10 uM)", "setting": "[1]", "result": 0.301}]}, {"test system": "BT xTNFa down", "values": [{"measurement": "LOEC (log10 uM)", "setting": "[1]", "result": 0.301}]}, {"test system": "KF3CT IL8 down", "values": [{"measurement": "LOEC (log10 uM)", "setting": "[1]", "result": 1.3}]}, {"test system": "CASM3C IL8 down", "values": [{"measurement": "LOEC (log10 uM)", "setting": "[1]", "result": 1.3}]}, {"test system": "BT xIL17F down", "values": [{"measurement": "LOEC (log10 uM)", "setting": "[1]", "result": 0.301}]}, {"test system": "4H uPAR down", "values": [{"measurement": "LOEC (log10 uM)", "setting": "[1]", "result": "1.04 ± 1"}]}, {"test system": "CASM3C HLADR down", "values": [{"measurement": "LOEC (log10 uM)", "setting": "[1]", "result": 1.3}]}, {"test system": "CASM3C MCP1 down", "values": [{"measurement": "LOEC (log10 uM)", "setting": "[1]", "result": 1.78}]}]}
